# US11357748B2, “Methods for treating mendelian disorders of the epigenetic machinery” (THE JOHNS HOPKINS UNIVERSITY, priority 2014, dated 2022)
# “Also recorded” adds a separate entry of the source.
# Tests used:
# [1] = tested on: genome-wide H3K4me3 in spleen cells; test: ChIP-seq of H3K4me3 in spleen cells of treated mice; type: in vivo, mouse; details: 10 mg/kg/day; vs Kmt2d+/+ littermates on vehicle; FIG. 25E, 27B
# Method: Spleens were dissected from eight mice, four from each kmt2d genotype (+/βGeo or +/+) where half of each genotype was treated with AR-42 and half with vehicle only. Spleens were minced and passed through a 40 µm cell strainer to obtain single cell suspensions. 10 million cells were used for each ChIP-seq experiment following the native chromatin immunoprecipitation protocol, as previously described (Gilfillan et al. (2012) BMC Genomics 13:645), using a ChIP-grade antibody against H3K4me3 (9727, Cell Signaling Technology, Beverly, Mass.).
# Sequencing was performed using a MiSeq system (Illumina, San Diego, Calif.). 4.8-9.6 million paired-end 26 bp reads were obtained per sample (Table 2; nReads=number of reads, alignRate=fraction aligned to genome; FRIP=fraction of reads in peaks). Reads were aligned to the m. musculus genome, version mm 10, using Bowtie 2 (Langmead and Salzberg (2012) Nat. Methods. 9: 357-9). Each sample was examined with regard to alignment rate as well as FRIP (fraction of reads in peaks), a measure of the ChIP efficiency (Table 2). […] For analysis, reads were merged into one meta-sample and peak calling was performed using MACS version 1.4.2 (Zhang et al. (2008) Genome Biol. 9: R137). […] This created a peak by sample matrix of read counts. […] Fold change and overall abundance was calculated as per edgeR. […]
# Kmt2d+/βGeo mice = test: Morris water maze (hippocampal memory) in the Kmt2d+/βGeo mouse model of Kabuki syndrome; type: in vivo; details: 10 mg/kg/day
# Text: Kmt2d^+/βGeo mice, also named Mll2Gt^(RRt024) Byg, were acquired from Bay Genomics (University of California). All experimental mice were on a mixed C57BL/6J and 129/SvEv background. Expected Mendelian ratios were observed when heterozygous animals were bred to wild-type. In heterozygous crosses, however, there was uniform embryonic lethality of homozygotes by ED 12, the earliest developmental stage assayed. For treatment with AR-42, mice were orally gavaged daily with drug (Selleck Chemicals, Houston, Tex.) solubilized in vehicle (0.5% methylcellulose, 0.1% Tween-80, water) or with vehicle alone. Drug delivery information was kindly provided by Drs. Chen and Kulp from Ohio State University (Huang et al. (2011) Mol. Pharmacol. 79:197-20619). Drug was administered for 14 days and mice were sacrificed on day 15. Morris water maze testing was initiated at day 7 and a dose of 10 mg/kg/day was used for these studies. For quantification of DCX positive cells, doses of 0, 5, 10 and 25 mg/kg/day were used. Genotyping was performed using primers B-GeoF-([…]; SEQ ID NO: 1) and B-GeoR-([…]; SEQ ID NO: 2) that are specific for the targeted allele and TcrdF-([…]; SEQ ID NO: 3) and TcrdR-([…]; SEQ ID NO: 4) that control for sufficient DNA concentration. Real-time PCR using the same primers allows discrimination between the heterozygous and homozygous state for the targeted allele. Maxillary protrusion was evaluated by ten investigators blinded to genotype and they were asked to rate maxillary protrusion on radiographs as either large (2) or small (1). […] All experiments were performed using mouse protocols approved by the Animal Care and Use Committee of Johns Hopkins University School of Medicine. The mouse protocols used for this study are in accordance with the guidelines used by the NIH for mouse care and handling.
# Mice were placed in a 1.1 meter diameter tank filled with room temperature water dyed with non-toxic white paint. For analysis purposes, the tank was divided into four quadrants, with one quadrant containing a small platform submerged 1.5 cm beneath the water. On each day of training, mice were placed in the tank in a random quadrant facing away from the center and were allowed to swim until they found the platform and were left there for 30 seconds. […] Each mouse was given 4 trials per day (for 5 days) with no inter-trial interval and subsequently returned to its home cage. Latency to reach the platform was measured during each trial. The day after the final day of training, the platform was removed for a probe trial where mice were placed in the tank for 90 s. Average number of crossings of the platform's previous location was recorded. Visible/flagged platform training was also performed for 3 days either before the hidden platform or after the probe trial, where a visible flag was placed on the submerged platform, and the time for each mouse to reach the platform was measured for each 60 second trial, four of which were run in the same way as the hidden platform training. For all training and probe testing, data was recorded both manually and electronically with ANY-maze software (San Diego Instruments, San Diego, Calif.) when applicable. All data were collected and analyzed by an individual blinded to genotype and treatment group. Differences in the number of platform crossings during the probe trial were compared between groups with a Student's t-test with significance value set at P<0.05.
# [2] = tested on: H3K4 trimethylation and histone acetylation; details: Huang et al. (2011); cited from earlier work
compound,measurement,setting,value
"CC(C)[C@H](C(=O)Nc1ccc(C(=O)NO)cc1)c1ccccc1 [AR-42, (S)—N-hydroxy-4-(3-methyl-2-phenylbutanamido)benzamide]",genome-wide H3K4me3 in spleen cells of Kmt2d+/βGeo mice,[1],genome-wide increase in H3K4me3; also recorded: overcorrection of genome-wide H3K4me3; also recorded: improved
same,functional studies outcome by dose,Kmt2d+/βGeo mice,most improvement in functional studies
same,"escape latency during training, Kmt2d+/βGeo vs Kmt2d+/+ both on drug",Kmt2d+/βGeo mice; FIG. 12B,No significant difference is observed
same,"escape latency during training, Kmt2d+/βGeo animals with vs without drug",Kmt2d+/βGeo mice; FIG. 12D,No significant difference is observed
same,"frequency of platform crossing during probe trial, Kmt2d+/βGeo mice",Kmt2d+/βGeo mice; FIG. 25F,normalized
same,"escape latency during training, Kmt2d+/+ animals with vs without drug","Kmt2d+/βGeo mice; P<0.01, FIG. 12C",significant difference
same,"platform crossing during probe trial, both Kmt2d+/+ and Kmt2d+/βGeo mice","Kmt2d+/βGeo mice; greater response in Kmt2d+/βGeo, FIG. 25F",improved performance
same,relative effect on H3K4me3 among HDACi,[2],strongest effect on H3K4me3
